Laboratory results: the Kinase Knowledgebase extract (Sharma et al. 2016)

Each compound was assayed against MAPK14 (human) (UniProt Q16539) (assay: Inhibition of MAPK14 Kinase Activity).
Sequence of MAPK14 (human) (Q16539 whole entry, looked up): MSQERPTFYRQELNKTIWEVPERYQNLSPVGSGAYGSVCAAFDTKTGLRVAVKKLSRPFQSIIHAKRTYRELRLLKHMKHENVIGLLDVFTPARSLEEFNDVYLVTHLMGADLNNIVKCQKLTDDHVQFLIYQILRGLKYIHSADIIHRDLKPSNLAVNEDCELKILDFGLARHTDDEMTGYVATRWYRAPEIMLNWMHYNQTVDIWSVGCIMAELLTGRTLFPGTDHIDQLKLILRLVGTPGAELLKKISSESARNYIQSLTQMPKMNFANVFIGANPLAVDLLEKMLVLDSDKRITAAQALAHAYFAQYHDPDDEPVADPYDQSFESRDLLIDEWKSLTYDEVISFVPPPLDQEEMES

Compound | IC50
Oc1ccc(-c2cnc3ccc4ccncc4c3c2)cc1 | > 20 µM
CS(=O)(=O)Nc1ccc(-c2cnc3ccc4ccncc4c3c2)cc1 | > 20 µM
CC(C)(C)NS(=O)(=O)c1ccc(-c2cnc3cccc(Nc4ccc(Cl)cn4)c3c2)cc1 | > 20 µM
c1ccc(-c2cnc3ccc4ccncc4c3c2)cc1 | > 20 µM
CS(=O)(=O)Nc1ccc(-c2cnc3cccc(Nc4ccccn4)c3c2)cc1 | > 20 µM
Nc1ccc(-c2cnc3ccc4ccncc4c3c2)cc1 | > 20 µM
CC(C)(C)NS(=O)(=O)c1ccc(-c2cnc3cccc(Nc4ccccn4)c3c2)cc1 | > 20 µM
CC(=O)Nc1ccc(-c2cnc3ccc4ccncc4c3c2)cc1 | > 20 µM
CS(=O)(=O)Nc1ccc(-c2cnc3cccc(-c4cccnc4)c3c2)cc1 | > 20 µM
CS(=O)(=O)Nc1ccc(-c2cnc3cccc(-c4ccncc4)c3c2)cc1 | > 20 µM
CS(=O)(=O)Nc1ccc(-c2cnc3cccc(Nc4ncccn4)c3c2)cc1 | > 20 µM
CS(=O)(=O)Nc1ccc(-c2cnc3cccc(Nc4ccc(Cl)cn4)c3c2)cc1 | > 20 µM
CS(=O)(=O)N(c1ccc(-c2cnc3ccc4ccncc4c3c2)cc1)S(C)(=O)=O | > 20 µM
